The values that follow come from patent publication US7625943B2, “5-alkyl-7-alkylcarbonate-isoflavone ester and related method” (priority 2004, dated 2009).

The conditions of series [1]: after transformation into the parent drug; cited from earlier work.
For series [2] the following is noted: administered to a human; estimated; cited from earlier work.
The next series is described as follows: duration of action. The series is classed as in vivo. The note with it: estimated; ratio to 5-methyl-7-methoxy-isoflavone. An excerpt:
One limitation of known prodrugs is that, once they are transformed into the parent drug, they are broken down in the body, and particularly in the liver. This breakdown reduces in vivo concentration and bioavailability of the drug. This breakdown effect has been observed with 5-methyl-7-methoxy-isoflavone. In the presently preferred embodiments of the invention, however, the compounds are less prone to such breakdown in the body relative to many known prodrug-type compounds. This in many instances is attributable to the alkylcarbonate ester promoiety, which makes the compound more resistant to hydrolysis and other reactions that inhibit or destroy them in the body. In vivo concentrations thus can be maintained more readily, and bioavailability of the parent isoflavone can be improved. It has been estimated that the duration of action for 5-methyl-7-ethylcarbonate-isoflavone may be twice that of 5-methyl-7-methoxy-isoflavone.

Regarding `COc1cc(C)c2c(=O)c(-c3ccccc3)coc2c1` [5-methyl-7-methoxy-isoflavone], the “breakdown effect in the body (liver) reducing in vivo concentration and bioavailability” value in series [1] is reported as “observed”. The “proportion of administered prodrug converted in vivo to 7-hydroxy-5-methyl-isoflavone” value in series [2] was “approximately 50%”.
Consider `CCOC(=O)Oc1cc(C)c2c(=O)c(-c3ccccc3)coc2c1` [5-methyl-7-ethylcarbonate-isoflavone], for which the “duration of action relative to 5-methyl-7-methoxy-isoflavone” value in “duration of action” is given as “twice”.
